pIC50: −log10 of the molar value. Where two headings read alike, the source gives them in different places.
Tests used:
[1] = test system: MDA-MB-453 (PI3Kα H1047R); experiment: pAKT (T308) ELISA assay, MDA-MB-453; type: cell-based; details: Homo sapiens, PI3KαH1047R, hereg, read-out: Cellular pAKT (T308) IC50 MDA-MB-453
Description: (§1) In another embodiment, the pAKT ELISA Assay was performed by seeding cells onto 96-well plates (Corning, 3904) in their respective growth media at the densities listed in Table 3. Cells were incubated at 37° C., 5% CO2 for 48 h (except MDA-MB-453 cells which were cultured in the absence of CO2). Compounds were serially diluted in DMSO and subsequently diluted in serum-free DMEM. Test compounds were added to cells in serum-free DMEM at a final concentration of 0.3% DMSO and incubated for 3 h. Cells were lysed with 130 μL of ice-cold RIPA lysis buffer (50 mM Tris-HCl, pH 7.5; 0.5% sodium deoxycholic acid; 1% Triton X-100; 0.1% SDS; 150 mM NaCl) with protease and phosphatase inhibitors (1 mM EDTA, 1 mM NaF, 20 mM β-glycerophosphate, 1 mM Na-orthovanadate, Complete-Mini EDTA-free, Roche, 11836170001, and Phosphatase Inhibitor Cocktail I, Sigma, P2850), directly in 96-well plates. Cells were lysed on ice for 60-120 min at 4° C. The supernatants were added directly to capture ELISA plates previously pre-coated with rabbit anti-AKT capture antibody. […] The wells were measured for luminescence using a Wallac plate reader at wavelength of 560 nm. After normalization of pAKT signal to total AKT1 signal, IC50 values were determined relative to the DMSO-treated control.

PI3Kα = PI3Kα (Homo sapiens, UniProt P42336); experiment: PI3K biochemical assay (ATP consumption, luciferase-luciferin)
Description: (§2) PI3Kα activity is measured as the percent of ATP consumed following the kinase reaction using luciferase-luciferin-coupled chemiluminescence. Reactions were conducted in 384-well white, medium binding microtiter plates (Greiner). Kinase reactions were initiated by combining test compounds, ATP, substrate (PIP2), and kinase in a 20 μL volume in a buffer solution. The standard PI3Kalpha assay buffer is composed 50 mM Tris, pH 7.5, 1 mM EGTA, 10 mM MgCl2, 1 mM DTT and 0.03% CHAPS. The standard assay concentrations for enzyme, ATP, and substrate are 1.5 nM, 1 μM, and 10 μM, respectively. The reaction mixture was incubated at ambient temperature for approximately 2 h. Following the kinase reaction, a 10 μL aliquot of luciferase-luciferin mix (Promega Kinase-Glo) was added and the chemiluminescence signal measured using a Victor2 plate reader (Perkin Elmer). Total ATP consumption was limited to 40-60% and IC50 values of control compounds correlate well with literature references. Substituting PI3Kα with PI3Kβ, PI3Kγ, or PI3Kδ, the inhibitory activity of the compounds for the other isoforms of I3K were measured.

PI3Kβ = PI3Kβ (Homo sapiens, UniProt P42338); experiment: PI3K biochemical assay, PI3Kβ
Description: as §2, with “Total ATP consumption was limited to 40-60% and IC50 values of control compounds correlate well with literature references.” left out

PI3Kγ = PI3Kγ (Homo sapiens, UniProt P48736); experiment: PI3K biochemical assay, PI3Kγ; details: PIP2 as substrate
Description: as §2

[2] = test system: NCI-H460 (PI3K-E545K/KRAS-Q61H); experiment: pAKT (T308) ELISA assay, NCI-H460; type: cell-based; details: Homo sapiens, PI3KαE545K, read-out: Cellular pAKT (T308) IC50 NCI-H460
Description: as §1

[3] = test system: SK-BR-3 (PI3Kα wild-type); experiment: pAKT (T308) ELISA assay, SK-BR-3; type: cell-based; details: Homo sapiens, PI3Kαwt, hereg, read-out: Cellular pAKT (T308) IC50 SK-BR-3
Description: as §1

PI3Kδ = PI3Kδ (Homo sapiens, UniProt O00329); experiment: PI3K biochemical assay, PI3Kδ; details: PIP2 as substrate
Description: as §2

Sequence of PI3Kα (P42336 whole entry): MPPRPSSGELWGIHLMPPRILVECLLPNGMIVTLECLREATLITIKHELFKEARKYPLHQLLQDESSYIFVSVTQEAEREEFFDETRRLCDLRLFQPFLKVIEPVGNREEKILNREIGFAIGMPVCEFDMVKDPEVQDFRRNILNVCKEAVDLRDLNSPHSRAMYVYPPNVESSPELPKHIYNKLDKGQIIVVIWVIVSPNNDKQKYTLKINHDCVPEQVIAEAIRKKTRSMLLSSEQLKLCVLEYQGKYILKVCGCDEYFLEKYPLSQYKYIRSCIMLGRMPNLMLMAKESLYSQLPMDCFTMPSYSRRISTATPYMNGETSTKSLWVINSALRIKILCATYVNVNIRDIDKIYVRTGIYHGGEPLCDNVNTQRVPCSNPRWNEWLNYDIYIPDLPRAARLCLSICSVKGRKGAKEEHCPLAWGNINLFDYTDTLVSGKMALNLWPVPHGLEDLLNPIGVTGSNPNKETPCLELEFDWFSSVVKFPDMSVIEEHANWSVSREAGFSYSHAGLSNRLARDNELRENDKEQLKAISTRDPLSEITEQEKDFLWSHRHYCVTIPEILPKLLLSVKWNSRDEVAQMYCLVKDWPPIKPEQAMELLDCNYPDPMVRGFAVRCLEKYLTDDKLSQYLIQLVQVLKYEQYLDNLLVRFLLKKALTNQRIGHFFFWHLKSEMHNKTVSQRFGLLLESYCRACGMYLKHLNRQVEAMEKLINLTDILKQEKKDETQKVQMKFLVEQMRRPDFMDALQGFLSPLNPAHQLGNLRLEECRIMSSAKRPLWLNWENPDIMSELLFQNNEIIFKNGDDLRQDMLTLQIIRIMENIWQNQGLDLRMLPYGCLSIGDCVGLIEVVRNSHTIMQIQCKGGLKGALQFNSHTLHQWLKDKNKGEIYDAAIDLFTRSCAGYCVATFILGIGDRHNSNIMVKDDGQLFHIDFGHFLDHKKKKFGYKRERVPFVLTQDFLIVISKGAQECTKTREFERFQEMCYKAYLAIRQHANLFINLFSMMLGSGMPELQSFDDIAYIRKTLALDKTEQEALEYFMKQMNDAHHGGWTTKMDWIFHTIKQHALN
Sequence of PI3Kα (P27986 whole entry partner): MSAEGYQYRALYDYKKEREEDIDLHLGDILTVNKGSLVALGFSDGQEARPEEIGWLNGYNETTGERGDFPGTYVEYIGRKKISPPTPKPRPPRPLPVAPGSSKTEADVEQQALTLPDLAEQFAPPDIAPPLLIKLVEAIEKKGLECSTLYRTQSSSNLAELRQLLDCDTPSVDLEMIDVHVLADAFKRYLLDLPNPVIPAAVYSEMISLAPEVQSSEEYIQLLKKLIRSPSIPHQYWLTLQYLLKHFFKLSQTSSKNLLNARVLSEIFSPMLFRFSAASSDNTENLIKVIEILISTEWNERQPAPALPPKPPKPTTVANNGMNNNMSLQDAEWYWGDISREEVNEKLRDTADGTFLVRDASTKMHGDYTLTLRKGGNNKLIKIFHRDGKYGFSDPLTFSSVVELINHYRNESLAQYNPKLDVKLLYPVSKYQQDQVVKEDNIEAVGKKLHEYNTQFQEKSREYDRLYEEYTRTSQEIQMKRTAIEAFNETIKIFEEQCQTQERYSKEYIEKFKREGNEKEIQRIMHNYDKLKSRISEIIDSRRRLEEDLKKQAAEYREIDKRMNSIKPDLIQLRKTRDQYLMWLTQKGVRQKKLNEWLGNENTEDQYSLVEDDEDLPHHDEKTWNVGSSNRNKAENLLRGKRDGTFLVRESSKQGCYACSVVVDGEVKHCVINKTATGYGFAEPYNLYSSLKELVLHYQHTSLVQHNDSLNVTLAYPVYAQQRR
Sequence of PI3Kδ (O00329 whole entry): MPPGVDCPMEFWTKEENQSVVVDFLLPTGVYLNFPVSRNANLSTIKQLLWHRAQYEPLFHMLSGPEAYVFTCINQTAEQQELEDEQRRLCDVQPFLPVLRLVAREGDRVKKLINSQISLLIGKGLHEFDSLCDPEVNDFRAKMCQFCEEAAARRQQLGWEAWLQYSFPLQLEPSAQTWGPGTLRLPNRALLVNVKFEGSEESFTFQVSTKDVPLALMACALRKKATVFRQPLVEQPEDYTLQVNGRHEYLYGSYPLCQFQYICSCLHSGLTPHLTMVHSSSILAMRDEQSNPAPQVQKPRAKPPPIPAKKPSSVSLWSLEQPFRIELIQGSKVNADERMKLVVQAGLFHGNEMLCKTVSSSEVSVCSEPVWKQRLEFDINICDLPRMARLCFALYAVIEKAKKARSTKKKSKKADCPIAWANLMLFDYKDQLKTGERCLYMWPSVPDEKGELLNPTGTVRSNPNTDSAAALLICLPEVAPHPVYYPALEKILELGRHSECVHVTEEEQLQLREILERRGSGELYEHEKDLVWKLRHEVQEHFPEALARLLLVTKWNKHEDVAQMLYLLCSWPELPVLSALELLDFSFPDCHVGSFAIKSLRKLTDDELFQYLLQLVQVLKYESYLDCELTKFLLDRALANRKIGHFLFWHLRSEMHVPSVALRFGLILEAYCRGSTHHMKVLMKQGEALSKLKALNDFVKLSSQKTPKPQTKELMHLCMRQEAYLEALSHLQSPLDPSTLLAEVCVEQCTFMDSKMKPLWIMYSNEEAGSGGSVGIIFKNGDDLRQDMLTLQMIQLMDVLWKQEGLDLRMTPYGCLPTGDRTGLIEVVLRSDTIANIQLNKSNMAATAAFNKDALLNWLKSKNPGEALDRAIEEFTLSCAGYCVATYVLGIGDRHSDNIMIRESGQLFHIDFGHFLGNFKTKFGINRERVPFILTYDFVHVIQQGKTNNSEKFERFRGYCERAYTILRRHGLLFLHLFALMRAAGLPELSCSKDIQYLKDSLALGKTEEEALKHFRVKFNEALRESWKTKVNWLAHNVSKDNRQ
Sequence of PI3Kδ (P27986 whole entry partner): as the sequence (P27986 whole entry partner) above
Sequence of PI3Kβ (P42338 whole entry): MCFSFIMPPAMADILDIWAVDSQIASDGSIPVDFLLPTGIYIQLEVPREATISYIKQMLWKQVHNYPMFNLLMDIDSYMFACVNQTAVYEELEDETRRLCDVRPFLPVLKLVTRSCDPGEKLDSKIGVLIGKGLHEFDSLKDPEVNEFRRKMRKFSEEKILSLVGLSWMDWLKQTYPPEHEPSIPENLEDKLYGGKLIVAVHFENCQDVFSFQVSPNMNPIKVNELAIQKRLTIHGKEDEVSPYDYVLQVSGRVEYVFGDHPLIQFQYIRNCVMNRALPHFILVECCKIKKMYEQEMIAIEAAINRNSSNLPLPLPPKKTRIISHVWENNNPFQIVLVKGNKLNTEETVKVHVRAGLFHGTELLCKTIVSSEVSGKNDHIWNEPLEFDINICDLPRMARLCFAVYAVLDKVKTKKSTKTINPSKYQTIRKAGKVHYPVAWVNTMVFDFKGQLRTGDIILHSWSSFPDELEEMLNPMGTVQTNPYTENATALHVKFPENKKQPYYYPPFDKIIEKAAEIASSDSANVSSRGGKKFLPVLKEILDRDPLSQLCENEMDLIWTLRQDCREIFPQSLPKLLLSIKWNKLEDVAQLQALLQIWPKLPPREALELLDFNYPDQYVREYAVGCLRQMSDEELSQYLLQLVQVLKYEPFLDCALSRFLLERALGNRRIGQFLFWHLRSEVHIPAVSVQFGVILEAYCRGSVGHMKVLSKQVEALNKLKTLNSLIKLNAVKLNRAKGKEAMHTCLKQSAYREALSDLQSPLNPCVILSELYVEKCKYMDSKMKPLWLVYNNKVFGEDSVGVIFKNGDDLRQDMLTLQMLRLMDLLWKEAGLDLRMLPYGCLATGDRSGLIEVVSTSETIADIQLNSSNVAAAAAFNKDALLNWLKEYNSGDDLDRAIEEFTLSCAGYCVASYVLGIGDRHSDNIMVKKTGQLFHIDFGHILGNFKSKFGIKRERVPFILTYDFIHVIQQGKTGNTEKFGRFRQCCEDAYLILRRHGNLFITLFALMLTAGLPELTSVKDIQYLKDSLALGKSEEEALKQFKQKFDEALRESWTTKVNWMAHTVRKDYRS
Sequence of PI3Kβ (P27986 whole entry partner): as the sequence (P27986 whole entry partner) above
Sequence of PI3Kγ (P48736 whole entry): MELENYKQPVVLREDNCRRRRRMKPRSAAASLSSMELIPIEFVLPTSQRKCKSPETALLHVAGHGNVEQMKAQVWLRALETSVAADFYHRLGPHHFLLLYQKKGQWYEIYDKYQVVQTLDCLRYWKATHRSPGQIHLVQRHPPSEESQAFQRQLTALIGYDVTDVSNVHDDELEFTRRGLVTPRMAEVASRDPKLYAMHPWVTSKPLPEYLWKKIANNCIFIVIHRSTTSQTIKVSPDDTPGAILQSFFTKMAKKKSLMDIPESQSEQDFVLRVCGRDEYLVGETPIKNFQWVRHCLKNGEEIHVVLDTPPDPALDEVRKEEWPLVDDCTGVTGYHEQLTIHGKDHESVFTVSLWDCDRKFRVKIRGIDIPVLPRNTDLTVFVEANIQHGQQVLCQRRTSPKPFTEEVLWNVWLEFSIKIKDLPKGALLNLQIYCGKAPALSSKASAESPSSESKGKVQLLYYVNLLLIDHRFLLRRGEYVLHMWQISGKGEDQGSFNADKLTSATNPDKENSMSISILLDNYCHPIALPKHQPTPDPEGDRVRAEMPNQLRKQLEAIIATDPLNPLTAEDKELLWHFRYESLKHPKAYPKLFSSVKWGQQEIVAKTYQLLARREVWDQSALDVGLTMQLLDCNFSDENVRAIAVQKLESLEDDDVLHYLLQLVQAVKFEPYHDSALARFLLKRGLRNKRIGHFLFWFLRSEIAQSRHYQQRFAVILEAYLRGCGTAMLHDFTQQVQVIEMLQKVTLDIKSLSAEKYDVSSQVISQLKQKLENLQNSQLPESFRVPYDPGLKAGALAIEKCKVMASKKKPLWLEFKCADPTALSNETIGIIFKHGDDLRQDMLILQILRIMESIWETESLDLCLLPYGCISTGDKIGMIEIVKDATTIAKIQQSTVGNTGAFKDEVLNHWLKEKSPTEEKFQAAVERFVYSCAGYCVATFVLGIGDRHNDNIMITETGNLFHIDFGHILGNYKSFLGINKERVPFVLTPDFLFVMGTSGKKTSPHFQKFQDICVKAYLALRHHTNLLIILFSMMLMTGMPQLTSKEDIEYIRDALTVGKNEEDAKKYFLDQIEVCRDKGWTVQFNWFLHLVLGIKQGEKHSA

Question: How did the pIC50 [1] turn out when `Cc1cc(C(C)Nc2ccccc2)c2nc(N3CCOCC3)cc(=O)n2c1` (centres unmarked) [TGX-221, 7-methyl-2-(4-morpholinyl)-9-[1-(phenylamino)ethyl]-4H-pyrido[1,2-a]pyrimidin-4-one] was run?
Answer: < 4.52

Question: And the pIC50 (PI3Kα; PIP2 as substrate, read-out: PI3K biochemical IC50 PI3Kα)?
Answer: 5.75

Question: What about the pIC50 (PI3Kα; Table 5, read-out: Biochemical IC50 PI3Kα) of the same compound?
Answer: 5.75

Question: What about the “activity against PI3Kβ (in words)” value (PI3Kβ) of the same compound?
Answer: active

Question: What about the pIC50 (PI3Kγ) of the same compound?
Answer: 5.78

Question: And the pIC50 [2]?
Answer: < 4.52

Question: What about the pIC50 [3] of the same compound?
Answer: < 4.52

Question: What about the pIC50 (PI3Kδ) of the same compound?
Answer: 6.85

From patent publication US20140066431A1, “Benzoxazepines as Inhibitors of PI3K/mTOR and Methods of Their Use and Manufacture” (Exelixis, Inc., priority 2010, published 2014)
